In PubChem BioAssay (NCI):
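A five-concentration, 48-hour dose response in 96-well plates underlies each endpoint, interpolated linearly between surrounding concentrations. Definition used: TGI = concentration required for complete inhibition of growth.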

Legend:
Assay in all cases: NCI tumour cell line growth inhibition, 48 h
KM12 colon = tested on: KM12 colon
OVCAR-3 ovarian = tested on: OVCAR-3 ovarian
NCI-H23 lung = tested on: NCI-H23 lung
U251 CNS = tested on: U251 CNS
SW-620 colon = tested on: SW-620 colon
PC-3 prostate = tested on: PC-3 prostate
UACC-257 melanoma = tested on: UACC-257 melanoma
SK-MEL-28 melanoma = tested on: SK-MEL-28 melanoma
UO-31 renal = tested on: UO-31 renal
HOP-92 NSCLC = tested on: HOP-92 NSCLC
EKVX NSCLC = tested on: EKVX NSCLC
OVCAR-8 ovarian = tested on: OVCAR-8 ovarian
SN12C renal = tested on: SN12C renal
HOP-62 NSCLC = tested on: HOP-62 NSCLC
SNB-75 CNS = tested on: SNB-75 CNS
HS 578T breast = tested on: HS 578T breast
NCI-H460 lung = tested on: NCI-H460 lung
NCI-H226 lung = tested on: NCI-H226 lung
UACC-62 melanoma = tested on: UACC-62 melanoma

| SMILES | TGI (KM12 colon) [µM] | TGI (OVCAR-3 ovarian) [µM] | TGI (NCI-H23 lung) [µM] | TGI (U251 CNS) [µM] | TGI (SW-620 colon) [µM] | TGI (PC-3 prostate) [µM] | TGI (UACC-257 melanoma) [µM] | TGI (SK-MEL-28 melanoma) [µM] | TGI (UO-31 renal) [µM] | TGI (HOP-92 NSCLC) [µM] | TGI (EKVX NSCLC) [µM] | TGI (OVCAR-8 ovarian) [µM] | TGI (SN12C renal) [µM] | TGI (HOP-62 NSCLC) [µM] | TGI (SNB-75 CNS) [µM] | TGI (HS 578T breast) [µM] | TGI (NCI-H460 lung) [µM] | TGI (NCI-H226 lung) [µM] | TGI (UACC-62 melanoma) [µM] |
| --- | --- | --- | --- | --- | --- | --- | --- | --- | --- | --- | --- | --- | --- | --- | --- | --- | --- | --- | --- |
| COc1ccc(OC)c(C(Cc2ccnc3ccccc23)Cc2ccnc3ccccc23)c1 | > 10 | > 10 | > 10 | > 10 | > 10 | > 10 | > 10 | > 10 | > 10 | > 10 | > 10 | > 10 | > 10 | > 10 | > 10 | > 10 | > 10 | > 10 | > 10 |
| COC(=O)C1(C(=O)OC)C/C(C)=C(/C)SCCCS1 | > 100 | > 100 | > 100 | > 100 | > 100 | > 100 | > 100 | > 100 | > 100 | > 100 | > 100 | > 100 | > 100 | > 100 | > 100 | > 100 | > 100 | > 100 | > 100 |
| C#CC(C)(C)OC(=O)C(=[N+]=[N-])C(C)=O | > 10 | > 10 | > 10 | > 10 | > 10 | > 10 | > 10 | > 10 | > 10 | > 10 | > 10 | > 10 | > 10 | > 10 | > 10 | > 10 | > 10 | > 10 | > 10 |
| COC(=O)C1=C(C(=O)Nc2cccnc2Cl)N(c2ccc(OC)cc2[N+](=O)[O-])C(c2ccc(C)cc2)=CC1c1ccc(OC)cc1OC (centres undefined) | 16.3 | 43.7 | > 85 | 40.3 | 22.7 | > 100 | > 100 | > 100 | > 76.2 | > 100 | > 81.9 | 31.1 | 35 | 68 | 72.3 | 67.4 | > 79.3 | 38.1 | > 100 |
| COc1cccc2cc(C(=O)O)c(=O)oc12 | > 100 | > 100 | > 100 | > 100 | > 100 | > 100 | > 100 | > 100 | > 100 | > 100 | > 100 | > 100 | > 100 | > 100 | > 100 | > 100 | > 100 | > 100 | > 100 |
| CN(C)CC1CCC/C(=C\c2ccc(Cl)cc2)C1=O (centres undefined) | 3.46 | 12.1 | 22.5 | 9.08 | 4.08 | 8 | 12.3 | 9.04 | 4.52 | 10.5 | 25.7 | 17.4 | 8.55 | 34.2 | 14.9 | 12.3 | 43.3 | 28.8 | 4.5 |
| Cc1c(C)n(-c2ccccc2)c2nc(S(C)(=O)=O)nc(S(C)(=O)=O)c12 | 28.2 | 3.02 | 23.3 | 11.2 | 2.9 | 10.2 | 3.16 | 6.73 | 3.23 | 3.2 | 11.7 | 4.94 | 33.8 | 33.2 | 34.5 | > 85.5 | 37.1 | 47.4 | 17.6 |
| CN1C(=O)c2ccccc2OC12C=Cc1ccc(O)cc1O2 (centres undefined) | 77.5 | 63.6 | > 100 | > 100 | > 100 | 59.2 | 43.6 | > 100 | 57.7 | 80.9 | 64.5 | 37.4 | > 100 | 73.7 | 80.1 | 84.3 | 61.8 | 92.8 | 91.6 |
| O=C(O)C1C2C=CC(C2)C1c1ccccc1 (centres undefined) | > 100 | > 100 | > 100 | > 100 | > 100 | > 100 | > 100 | > 100 | > 100 | > 100 | > 100 | > 100 | > 100 | > 100 | > 100 | > 100 | > 100 | > 100 | > 100 |
| O=C(Oc1ccccc1)N1c2ccccc2[C@@]23O[C@]24CCC[C@H]3C#C/C=C\C#C[C@H]14 | 26.4 | 26.1 | 28.7 | 30.3 | 23.5 | 23.8 | 28.7 | 27 | 26.5 | 27 | 31.8 | 24.8 | 26.6 | 25.6 | 23.3 | 47.1 | 11.4 | 38.1 | 23.6 |
| COc1ccc2c(c1)nc1n2C(c2c(Cl)cccc2Cl)SC1 (centres undefined) | > 100 | > 93 | > 100 | > 65.5 | > 53.8 | > 82.3 | > 100 | > 100 | > 100 | > 100 | > 100 | > 100 | > 100 | > 71 | > 75.1 | 49.4 | > 100 | > 100 | > 100 |
